# Experimental data: US20240239861A1, “GLUCAGON-RECEPTOR SELECTIVE POLYPEPTIDES AND METHODS OF USE THEREOF” (i2O Therapeutics, Inc., priority 2016, published 2024)
# pEC50: −log10 of the molar value. Where a SMILES comes first, the peptide text is derived from it. [ ]: non-standard residue; d: D form. Aib = CC(C)(N)C(=O)O
# Target: human GLP-1R (Homo sapiens, UniProt P43220)
# Assay: Peptide-receptor mediated cAMP accumulation (LANCE Ultra cAMP) in CHO-K1 cells transfected with human GLP-1R
# Assay type: cell-based
# Settings: hGLP1 pEC50 (cAMP mean (n = 3): 11 point curve starting at 1 nM, Table 3)
# Chain of human GLP-1R (P43220 24-463): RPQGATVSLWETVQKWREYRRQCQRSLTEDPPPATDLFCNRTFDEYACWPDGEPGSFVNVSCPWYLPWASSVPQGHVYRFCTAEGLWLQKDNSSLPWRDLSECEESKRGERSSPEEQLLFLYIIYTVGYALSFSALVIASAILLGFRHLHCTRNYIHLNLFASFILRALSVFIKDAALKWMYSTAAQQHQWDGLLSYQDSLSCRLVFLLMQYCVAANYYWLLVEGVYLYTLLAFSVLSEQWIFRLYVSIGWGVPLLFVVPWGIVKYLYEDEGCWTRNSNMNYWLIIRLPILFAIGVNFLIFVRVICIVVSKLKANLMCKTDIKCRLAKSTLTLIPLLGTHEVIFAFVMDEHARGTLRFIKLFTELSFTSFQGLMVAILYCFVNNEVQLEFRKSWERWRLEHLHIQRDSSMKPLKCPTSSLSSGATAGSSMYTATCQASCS
row,SMILES,pEC50
1,CC(C)C[C@H](NC(=O)[C@H](Cc1c[nH]c2ccccc12)NC(=O)[C@H](CCCCN)NC(=O)[C@H](CO)NC(=O)[C@H](Cc1ccc(O)cc1)NC(=O)[C@H](CC(=O)O)NC(=O)[C@H](CO)NC(=O)[C@@H](NC(=O)[C@H](Cc1ccccc1)NC(=O)[C@@H](NC(=O)CNC(=O)[C@H](Cc1c[nH]cn1)NC(=O)[C@H](CO)NC(=O)[C@@H](N)Cc1ccc(O)cc1)[C@@H](C)O)[C@@H](C)O)C(=O)N[C@@H](CC(=O)O)C(=O)N[C@@H](CO)C(=O)N[C@@H](C)C(=O)N[C@@H](CCCNC(=N)N)C(=O)N[C@@H](C)C(=O)N[C@@H](CCC(N)=O)C(=O)N[C@@H](CCC(=O)O)C(=O)N[C@@H](Cc1ccccc1)C(=O)N[C@H](C(=O)N[C@@H](CCCCN)C(=O)N[C@@H](Cc1c[nH]c2ccccc12)C(=O)N[C@@H](CC(C)C)C(=O)N[C@@H](CCC(=O)O)C(=O)N[C@@H](CC(=O)O)C(=O)N[C@@H](CCC(=O)O)C(=O)N1CCC[C@H]1C(=O)N[C@@H](CO)C(=O)N[C@@H](CO)C(=O)NCC(=O)N[C@@H](C)C(=O)N1CCC[C@H]1C(=O)N1CCC[C@H]1C(=O)N1CCC[C@H]1C(=O)N[C@@H](CO)C(=O)O)C(C)C [Compound A38] (H-YSHGTFTSDYSKWLDSARAQEFVKWLEDEPSSGAPPPS-OH; N-terminus assumed),< 9.00
2,CC(C)C[C@H](NC(=O)[C@H](CC(=O)O)NC(=O)[C@H](CC(C)C)NC(=O)[C@H](Cc1ccc(O)cc1)NC(=O)[C@H](CCCCN)NC(=O)[C@H](CO)NC(=O)[C@H](Cc1ccc(O)cc1)NC(=O)[C@H](CC(=O)O)NC(=O)[C@H](CO)NC(=O)[C@@H](NC(=O)[C@H](Cc1ccccc1)NC(=O)[C@@H](NC(=O)CNC(=O)[C@H](Cc1c[nH]cn1)NC(=O)[C@H](CO)NC(=O)[C@@H](N)Cc1ccc(O)cc1)[C@@H](C)O)[C@@H](C)O)C(=O)N[C@@H](CCCCN)C(=O)N[C@@H](CCCNC(=N)N)C(=O)N[C@@H](C)C(=O)N[C@@H](CCC(N)=O)C(=O)N[C@@H](CCC(=O)O)C(=O)N[C@@H](Cc1ccccc1)C(=O)N[C@H](C(=O)NC(C)(C)C(=O)N[C@@H](Cc1c[nH]c2ccccc12)C(=O)N[C@@H](CC(C)C)C(=O)N[C@@H](CCC(=O)O)C(=O)N[C@@H](CC(=O)O)C(=O)N[C@@H](CCC(=O)O)C(=O)N1CCC[C@H]1C(=O)N[C@@H](CO)C(=O)N[C@@H](CO)C(=O)NCC(=O)N[C@@H](C)C(=O)N1CCC[C@H]1C(=O)N1CCC[C@H]1C(=O)N1CCC[C@H]1C(=O)N[C@@H](CO)C(=O)O)C(C)C [Compound A51] (H-YSHGTFTSDYSKYLDLKRAQEFV[Aib]WLEDEPSSGAPPPS-OH; N-terminus assumed),< 9.00
3,CC(C)C[C@H](NC(=O)[C@H](Cc1ccc(O)cc1)NC(=O)[C@H](CCCCN)NC(=O)[C@H](CO)NC(=O)[C@H](Cc1ccc(O)cc1)NC(=O)[C@H](CC(=O)O)NC(=O)[C@H](CO)NC(=O)[C@@H](NC(=O)[C@H](Cc1ccccc1)NC(=O)[C@@H](NC(=O)CNC(=O)[C@H](Cc1c[nH]cn1)NC(=O)[C@H](CO)NC(=O)[C@@H](N)Cc1ccc(O)cc1)[C@@H](C)O)[C@@H](C)O)C(=O)N[C@@H](CC(=O)O)C(=O)NC(C)(C)C(=O)N[C@@H](CCCCN)C(=O)N[C@@H](CCCNC(=N)N)C(=O)N[C@@H](C)C(=O)N[C@@H](CCC(N)=O)C(=O)N[C@@H](CCC(=O)O)C(=O)N[C@@H](Cc1ccccc1)C(=O)N[C@H](C(=O)NC(C)(C)C(=O)N[C@@H](Cc1c[nH]c2ccccc12)C(=O)N[C@@H](CC(C)C)C(=O)N[C@@H](CCC(=O)O)C(=O)N[C@@H](CC(=O)O)C(=O)N[C@@H](CCC(=O)O)C(=O)N1CCC[C@H]1C(=O)N[C@@H](CCCCN)C(=O)N[C@@H](CO)C(=O)N[C@@H](CCCCN)C(=O)N[C@@H](CCC(=O)O)C(=O)N1CCC[C@H]1C(=O)N1CCC[C@H]1C(=O)N1CCC[C@H]1C(=O)N[C@@H](CO)C(N)=O)C(C)C [Compound A65] (H-YSHGTFTSDYSKYLD[Aib]KRAQEFV[Aib]WLEDEPKSKEPPPS-NH2; N-terminus assumed),< 9.00
4,CC(C)C[C@H](NC(=O)[C@H](Cc1ccc(O)cc1)NC(=O)[C@H](CCCCN)NC(=O)[C@H](CO)NC(=O)[C@H](Cc1ccc(O)cc1)NC(=O)[C@H](CC(=O)O)NC(=O)[C@H](CO)NC(=O)[C@@H](NC(=O)[C@H](Cc1ccccc1)NC(=O)[C@@H](NC(=O)CNC(=O)[C@H](Cc1c[nH]cn1)NC(=O)[C@H](CO)NC(=O)[C@@H](N)Cc1ccc(O)cc1)[C@@H](C)O)[C@@H](C)O)C(=O)N[C@@H](CC(=O)O)C(=O)NC(C)(C)C(=O)N[C@@H](CCCCN)C(=O)N[C@@H](CCCNC(=N)N)C(=O)N[C@@H](C)C(=O)N[C@@H](CCC(N)=O)C(=O)N[C@@H](CCC(=O)O)C(=O)N[C@@H](Cc1ccccc1)C(=O)N[C@H](C(=O)NC(C)(C)C(=O)N[C@@H](Cc1c[nH]c2ccccc12)C(=O)N[C@@H](CC(C)C)C(=O)N[C@@H](CCC(=O)O)C(=O)N[C@@H](CC(=O)O)C(=O)N[C@@H](CCC(=O)O)C(=O)N1CCC[C@H]1C(=O)N[C@@H](CCCCN)C(=O)N[C@@H](CO)C(=O)N[C@@H](CCCCN)C(=O)N[C@@H](CO)C(=O)N1CCC[C@H]1C(=O)N1CCC[C@H]1C(=O)N1CCC[C@H]1C(=O)N[C@@H](CO)C(N)=O)C(C)C [Compound A66] (H-YSHGTFTSDYSKYLD[Aib]KRAQEFV[Aib]WLEDEPKSKSPPPS-NH2; N-terminus assumed),< 9.00

# Results, then the compound that gave them:
row,pEC50,SMILES
1,< 9.00,CC[C@H](C)[C@H](NC(=O)[C@@H]1CCCN1C(=O)[C@@H]1CCCN1C(=O)[C@H](CCCCN)NC(=O)[C@H](CC(N)=O)NC(=O)[C@H](CCCNC(=N)N)NC(=O)[C@H](CCCCN)NC(=O)[C@H](CCC(=O)O)NC(=O)[C@H](CC(=O)O)NC(=O)[C@H](CCC(=O)O)NC(=O)[C@H](CC(C)C)NC(=O)[C@H](Cc1c[nH]c2ccccc12)NC(=O)C(C)(C)NC(=O)[C@@H](NC(=O)[C@H](Cc1ccccc1)NC(=O)[C@H](CCC(=O)O)NC(=O)[C@H](CCC(N)=O)NC(=O)[C@H](C)NC(=O)[C@H](CCCNC(=N)N)NC(=O)[C@H](CCCCN)NC(=O)C(C)(C)NC(=O)[C@H](CC(=O)O)NC(=O)[C@H](CC(C)C)NC(=O)[C@H](Cc1ccc(O)cc1)NC(=O)[C@H](CCCCN)NC(=O)[C@H](CO)NC(=O)[C@H](Cc1ccc(O)cc1)NC(=O)[C@H](CC(=O)O)NC(=O)[C@H](CO)NC(=O)[C@@H](NC(=O)[C@H](Cc1ccccc1)NC(=O)[C@@H](NC(=O)CNC(=O)[C@H](Cc1c[nH]cn1)NC(=O)[C@H](CO)NC(=O)[C@@H](N)Cc1ccc(O)cc1)[C@@H](C)O)[C@@H](C)O)C(C)C)C(=O)N[C@@H](C)C(=O)O [Compound A46] (H-YSHGTFTSDYSKYLD[Aib]KRAQEFV[Aib]WLEDEKRNKPPIA-OH; N-terminus assumed)
2,< 9.00,CC(C)C[C@H](NC(=O)[C@H](Cc1ccc(O)cc1)NC(=O)[C@H](CCCCN)NC(=O)[C@H](CO)NC(=O)[C@H](Cc1ccc(O)cc1)NC(=O)[C@H](CC(=O)O)NC(=O)[C@H](CO)NC(=O)[C@@H](NC(=O)[C@H](Cc1ccccc1)NC(=O)[C@@H](NC(=O)CNC(=O)[C@H](Cc1c[nH]cn1)NC(=O)[C@H](CO)NC(=O)[C@@H](N)Cc1ccc(O)cc1)[C@@H](C)O)[C@@H](C)O)C(=O)N[C@@H](CC(=O)O)C(=O)NC(C)(C)C(=O)N[C@@H](CCCCN)C(=O)N[C@@H](CCCNC(=N)N)C(=O)N[C@@H](C)C(=O)N[C@@H](CCC(N)=O)C(=O)N[C@@H](CCC(=O)O)C(=O)N[C@@H](Cc1ccccc1)C(=O)N[C@H](C(=O)NC(C)(C)C(=O)N[C@@H](Cc1c[nH]c2ccccc12)C(=O)N[C@@H](CC(C)C)C(=O)N[C@@H](CCC(=O)O)C(=O)N[C@@H](CC(=O)O)C(=O)N[C@@H](CCC(=O)O)C(=O)N1CCC[C@H]1C(=O)N[C@@H](CCCNC(=N)N)C(=O)N[C@@H](CC(N)=O)C(=O)N[C@@H](CCCCN)C(=O)N[C@@H](CC(N)=O)C(=O)N[C@@H](CC(N)=O)C(=O)N1CCC[C@H]1C(=O)N1CCC[C@H]1C(=O)N[C@@H](CO)C(=O)O)C(C)C [Compound A49] (H-YSHGTFTSDYSKYLD[Aib]KRAQEFV[Aib]WLEDEPRNKNNPPS-OH; N-terminus assumed)
3,< 9.00,CC(C)C[C@H](NC(=O)[C@H](Cc1ccc(O)cc1)NC(=O)[C@H](CCCCN)NC(=O)[C@H](CO)NC(=O)[C@H](Cc1ccc(O)cc1)NC(=O)[C@H](CC(=O)O)NC(=O)[C@H](CO)NC(=O)[C@@H](NC(=O)[C@H](Cc1ccccc1)NC(=O)[C@@H](NC(=O)CNC(=O)[C@H](Cc1c[nH]cn1)NC(=O)[C@H](CO)NC(=O)[C@@H](N)Cc1ccc(O)cc1)[C@@H](C)O)[C@@H](C)O)C(=O)N[C@@H](CC(=O)O)C(=O)NC(C)(C)C(=O)N[C@@H](CCCCN)C(=O)N[C@@H](CCCNC(=N)N)C(=O)N[C@@H](C)C(=O)N[C@@H](CCC(N)=O)C(=O)N[C@@H](CCC(=O)O)C(=O)N[C@@H](Cc1ccccc1)C(=O)N[C@H](C(=O)NC(C)(C)C(=O)N[C@@H](Cc1c[nH]c2ccccc12)C(=O)N[C@@H](CC(C)C)C(=O)N[C@@H](CCC(=O)O)C(=O)N[C@@H](CC(=O)O)C(=O)N[C@@H](CCC(=O)O)C(=O)N1CCC[C@H]1C(=O)N[C@@H](CO)C(=O)N[C@@H](CO)C(=O)N[C@@H](CCCCN)C(=O)N[C@@H](CO)C(=O)N1CCC[C@H]1C(=O)N1CCC[C@H]1C(=O)N1CCC[C@H]1C(=O)N[C@@H](CO)C(=O)O)C(C)C [Compound A55] (H-YSHGTFTSDYSKYLD[Aib]KRAQEFV[Aib]WLEDEPSSKSPPPS-OH; N-terminus assumed)
4,< 9.00,CC(C)C[C@H](NC(=O)[C@H](Cc1ccc(O)cc1)NC(=O)[C@H](CCCCN)NC(=O)[C@H](CO)NC(=O)[C@H](Cc1ccc(O)cc1)NC(=O)[C@H](CC(=O)O)NC(=O)[C@H](CO)NC(=O)[C@@H](NC(=O)[C@H](Cc1ccccc1)NC(=O)[C@@H](NC(=O)CNC(=O)[C@H](Cc1c[nH]cn1)NC(=O)[C@H](CO)NC(=O)[C@@H](N)Cc1ccc(O)cc1)[C@@H](C)O)[C@@H](C)O)C(=O)N[C@@H](CC(=O)O)C(=O)NC(C)(C)C(=O)N[C@@H](CCCCN)C(=O)N[C@@H](CCCNC(=N)N)C(=O)N[C@@H](C)C(=O)N[C@@H](CCC(N)=O)C(=O)N[C@@H](CCC(=O)O)C(=O)N[C@@H](Cc1ccccc1)C(=O)N[C@H](C(=O)NC(C)(C)C(=O)N[C@@H](Cc1c[nH]c2ccccc12)C(=O)N[C@@H](CC(C)C)C(=O)N[C@@H](CCC(=O)O)C(=O)N[C@@H](CC(=O)O)C(=O)N[C@@H](CCC(=O)O)C(=O)N1CCC[C@H]1C(=O)N[C@@H](CO)C(=O)N[C@@H](CO)C(=O)N[C@@H](CCCCN)C(=O)N[C@@H](CCC(N)=O)C(=O)N1CCC[C@H]1C(=O)N1CCC[C@H]1C(=O)N1CCC[C@H]1C(=O)N[C@@H](CO)C(=O)O)C(C)C [Compound A59] (H-YSHGTFTSDYSKYLD[Aib]KRAQEFV[Aib]WLEDEPSSKQPPPS-OH; N-terminus assumed)
